In US20230058171A1, “NEW ORAL PHARMACEUTICAL COMPOSITION FOR CANCER THERAPY” (BOEHRINGER INGELHEIM INTERNATIONAL GMBH, priority 2021, published 2023):
Read-outs that look alike come from different tables or passages of the source.

Assay: Preliminary pharmacokinetics in trial 1403-0001 (Arm A D1 q3w, Arm B D1 D8 q4w)
Assay type: in vivo, human
Details: for Vd/F / half-life / Tmax / AUC(0-inf) / Cmax: human, plasma, oral
From the text: Preliminary PK data were available from the first 45 treated patients in study 1403-0001. The exploratory PK analysis is based on planned blood sampling time-points and the results are subject to change because not all samples from these patients have been analyzed yet. Therefore, AUCs may be incomplete. In addition, information on the absorption, distribution, and elimination of the MDM2 antagonist of formula I are descriptive given the limited exploratory PK results available up to this point in time.
Consequently the preliminary PK results support the dose selection of 45 mg (and alternatively even of 30 mg) combined with the once in three weeks (D1 q3w) dose regimen. The tmax of the MDM2 antagonist of formula I is generally between 4 and 6 hours after tablet intake.

Cc1c(C(=O)O)ccc2c3n(nc12)[C@@H]1[C@H](C3)N(CC2CC2)[C@@]2(C(=O)Nc3cc(Cl)ccc32)[C@H]1c1cccc(Cl)c1F [MDM2-antagonist of formula I, (2′S,3′S,3a'S,10a'S)-6-chloro-3′-(3-chloro-2-fluorophenyl)-1′-(cyclopropylmethyl)-6′-methyl-2-oxo-1,2,3′,3a′,10′,10a′-hexahydro-1′H-spiro[indole-3,2′-pyrrolo[2′,3′:4,5]pyrrolo[1,2-b]indazole]-7′-carboxylic acid]
Vd/F (10 mg, Day 1, D1 D8 q4w (Arm B), gMean, N=3, read-out: Vz/F): 24.5 L
half-life (10 mg, Day 1, D1 D8 q4w (Arm B), gMean, N=3, read-out: t1/2 (converted)): 52.4 h
Tmax (10 mg, Day 1, D1 D8 q4w (Arm B), median, N=3, read-out: tmax): 6 h
AUC(0-inf) (10 mg, Day 8, D1 D8 q4w (Arm B), gMean, N=3, read-out: AUC0-∞): 48.4 µM·h
Cmax (10 mg, Day 8, D1 D8 q4w (Arm B), gMean, N=3, read-out: Cmax): 714 nM
Vd/F (10 mg, Day 8, D1 D8 q4w (Arm B), gMean, N=3, read-out: Vz/F): 23.1 L
half-life (10 mg, Day 8, D1 D8 q4w (Arm B), gMean, N=3, read-out: t1/2 (converted)): 45.9 h
Tmax (10 mg, Day 8, D1 D8 q4w (Arm B), median, N=3, read-out: tmax): 5 h
AUC(0-inf) (15 mg, Day 1, D1 D8 q4w (Arm B), gMean, N=3, read-out: AUC0-∞): 37.8 µM·h
Cmax (15 mg, Day 1, D1 D8 q4w (Arm B), gMean, N=3, read-out: Cmax): 831 nM
Vd/F (15 mg, Day 1, D1 D8 q4w (Arm B), gMean, N=3, read-out: Vz/F): 32.3 L
half-life (15 mg, Day 1, D1 D8 q4w (Arm B), gMean, N=3, read-out: t1/2 (converted)): 33.4 h
Tmax (15 mg, Day 1, D1 D8 q4w (Arm B), median, N=3, read-out: tmax): 5 h
AUC(0-inf) (15 mg, Day 8, D1 D8 q4w (Arm B), gMean, N=2, read-out: AUC0-∞): 25.8 µM·h
Vd/F (15 mg, Day 8, D1 D8 q4w (Arm B), gMean, N=2, read-out: Vz/F): 37.3 L
half-life (15 mg, Day 8, D1 D8 q4w (Arm B), gMean, N=2, read-out: t1/2 (converted)): 26.3 h
Cmax (15 mg, Day 8, D1 D8 q4w (Arm B), gMean, N=3, read-out: Cmax): 776 nM
Tmax (15 mg, Day 8, D1 D8 q4w (Arm B), median, N=3, read-out: tmax): 4 h
Cmax (20 mg, Arm A D1 q3w, 20 mg, N=2, read-out: Cmax (gMean)): 1160 nM
Tmax (20 mg, Arm A D1 q3w, 20 mg, N=2, read-out: tmax (median)): 5.5 h
AUC(0-inf) (20 mg, Day 1, D1 D8 q4w (Arm B), gMean, N=3, read-out: AUC0-∞): 88.9 µM·h
Cmax (20 mg, Day 1, D1 D8 q4w (Arm B), gMean, N=3, read-out: Cmax): 1370 nM
Vd/F (20 mg, Day 1, D1 D8 q4w (Arm B), gMean, N=3, read-out: Vz/F): 27.7 L
half-life (20 mg, Day 1, D1 D8 q4w (Arm B), gMean, N=3, read-out: t1/2 (converted)): 50.5 h
Tmax (20 mg, Day 1, D1 D8 q4w (Arm B), median, N=3, read-out: tmax): 4 h
AUC(0-inf) (20 mg, Day 8, D1 D8 q4w (Arm B), gMean, N=3, read-out: AUC0-∞): 61.1 µM·h
Cmax (20 mg, Day 8, D1 D8 q4w (Arm B), gMean, N=3, read-out: Cmax): 1220 nM
Vd/F (20 mg, Day 8, D1 D8 q4w (Arm B), gMean, N=3, read-out: Vz/F): 30.5 L
half-life (20 mg, Day 8, D1 D8 q4w (Arm B), gMean, N=3, read-out: t1/2 (converted)): 38.2 h
Tmax (20 mg, Day 8, D1 D8 q4w (Arm B), median, N=3, read-out: tmax): 3 h
AUC(0-inf) (30 mg, Arm A D1 q3w, 30 mg, N=3, read-out: AUC0-∞, gMean (gCV [%])): 113 µM·h
Cmax (30 mg, Arm A D1 q3w, 30 mg, N=3, read-out: Cmax (gMean)): 2890 nM
Vd/F (30 mg, Arm A D1 q3w, 30 mg, N=3, read-out: Vz/F, gMean (gCV [%])): 23.6 L
Tmax (30 mg, Arm A D1 q3w, 30 mg, N=3, read-out: tmax (median)): 4 h
AUC(0-inf) (30 mg, Day 1, D1 D8 q4w (Arm B), gMean, N=4, read-out: AUC0-∞): 79.9 µM·h
Cmax (30 mg, Day 1, D1 D8 q4w (Arm B), gMean, N=4, read-out: Cmax): 1440 nM
Vd/F (30 mg, Day 1, D1 D8 q4w (Arm B), gMean, N=4, read-out: Vz/F): 33.1 L
half-life (30 mg, Day 1, D1 D8 q4w (Arm B), gMean, N=4, read-out: t1/2 (converted)): 36.2 h
Tmax (30 mg, Day 1, D1 D8 q4w (Arm B), median, N=4, read-out: tmax): 4.5 h
AUC(0-inf) (30 mg, Day 8, D1 D8 q4w (Arm B), gMean, N=3, read-out: AUC0-∞): 64.8 µM·h
Cmax (30 mg, Day 8, D1 D8 q4w (Arm B), gMean, N=3, read-out: Cmax): 1330 nM
Vd/F (30 mg, Day 8, D1 D8 q4w (Arm B), gMean, N=3, read-out: Vz/F): 44.6 L
half-life (30 mg, Day 8, D1 D8 q4w (Arm B), gMean, N=3, read-out: t1/2 (converted)): 39.5 h
Tmax (30 mg, Day 8, D1 D8 q4w (Arm B), median, N=3, read-out: tmax): 4 h
AUC(0-inf) (45 mg, Arm A D1 q3w, 45 mg, N=6, read-out: AUC0-∞, gMean (gCV [%])): 137 µM·h
Cmax (45 mg, Arm A D1 q3w, 45 mg, N=6, read-out: Cmax (gMean)): 2710 nM
Vd/F (45 mg, Arm A D1 q3w, 45 mg, N=6, read-out: Vz/F, gMean (gCV [%])): 35.1 L
half-life (45 mg, Arm A D1 q3w, 45 mg, N=6, read-out: t1/2 (gMean) (converted)): 43.7 h
Tmax (45 mg, Arm A D1 q3w, 45 mg, N=6, read-out: tmax (median)): 4 h
AUC(0-inf) (45 mg, Day 1, D1 D8 q4w (Arm B), gMean, N=2, read-out: AUC0-∞): 96.9 µM·h
Cmax (45 mg, Day 1, D1 D8 q4w (Arm B), gMean, N=2, read-out: Cmax): 2330 nM
Vd/F (45 mg, Day 1, D1 D8 q4w (Arm B), gMean, N=2, read-out: Vz/F): 34 L
half-life (45 mg, Day 1, D1 D8 q4w (Arm B), gMean, N=2, read-out: t1/2 (converted)): 30 h
Tmax (45 mg, Day 1, D1 D8 q4w (Arm B), median, N=2, read-out: tmax): 4 h
AUC(0-inf) (50 mg, Arm A D1 q3w, 50 mg, N=4, read-out: AUC0-∞, gMean (gCV [%])): 314 µM·h
Cmax (50 mg, Arm A D1 q3w, 50 mg, N=4, read-out: Cmax (gMean)): 3740 nM
Vd/F (50 mg, Arm A D1 q3w, 50 mg, N=4, read-out: Vz/F, gMean (gCV [%])): 23.7 L
half-life (50 mg, Arm A D1 q3w, 50 mg, N=4, read-out: t1/2 (gMean) (converted)): 60.9 h
Tmax (50 mg, Arm A D1 q3w, 50 mg, N=4, read-out: tmax (median)): 5.5 h
AUC(0-inf) (60 mg, Arm A D1 q3w, 60 mg, N=6, read-out: AUC0-∞, gMean (gCV [%])): 163 µM·h
Vd/F (60 mg, Arm A D1 q3w, 60 mg, N=6, read-out: Vz/F, gMean (gCV [%])): 31.4 L
half-life (60 mg, Arm A D1 q3w, 60 mg, N=6, read-out: t1/2 (gMean) (converted)): 34.9 h
Cmax (60 mg, Arm A D1 q3w, 60 mg, N=7, read-out: Cmax (gMean)): 3270 nM
Tmax (60 mg, Arm A D1 q3w, 60 mg, N=7, read-out: tmax (median)): 5 h
AUC(0-inf) (60 mg, Day 1, D1 D8 q4w (Arm B), gMean, N=2, read-out: AUC0-∞): 87.7 µM·h
Cmax (60 mg, Day 1, D1 D8 q4w (Arm B), gMean, N=2, read-out: Cmax): 1960 nM
Vd/F (60 mg, Day 1, D1 D8 q4w (Arm B), gMean, N=2, read-out: Vz/F): 57 L
half-life (60 mg, Day 1, D1 D8 q4w (Arm B), gMean, N=2, read-out: t1/2 (converted)): 34.2 h
Tmax (60 mg, Day 1, D1 D8 q4w (Arm B), median, N=2, read-out: tmax): 6 h
Cmax (60 mg, Day 8, D1 D8 q4w (Arm B), gMean, N=2, read-out: Cmax): 1890 nM
Tmax (60 mg, Day 8, D1 D8 q4w (Arm B), median, N=2, read-out: tmax): 16 h
AUC(0-inf) (80 mg, Arm A D1 q3w, 80 mg, N=2, read-out: AUC0-∞, gMean (gCV [%])): 205 µM·h
Cmax (80 mg, Arm A D1 q3w, 80 mg, N=2, read-out: Cmax (gMean)): 3930 nM
Vd/F (80 mg, Arm A D1 q3w, 80 mg, N=2, read-out: Vz/F, gMean (gCV [%])): 26.5 L
half-life (80 mg, Arm A D1 q3w, 80 mg, N=2, read-out: t1/2 (gMean) (converted)): 27.9 h
Tmax (80 mg, Arm A D1 q3w, 80 mg, N=2, read-out: tmax (median)): 3.5 h
Tmax (after tablet intake, across dose groups, read-out: tmax): 4 to 6 h
half-life (range across dose groups, read-out: half-life): 27.9 to 60.9 h
half-life (Arm A D1 q3w, 30 mg, N=3, read-out: t1/2 (gMean) (converted)): 36.4 h
clearance (humans, preliminary PK data): low clearance
dose levels at which exposure (Cmax and AUC0-inf) is above predicted therapeutic exposures (humans, preliminary PK data): ≥ 15 mg
volume of distribution (humans, preliminary PK data): very low volume of distribution
